Measured values published in PubChem BioAssay AID248 (DTP/NCI, 2004).
“And” between values parts separate entries of the source, which are not always exact repeats. Identical values can stand only once. Inconclusive results and toxic doses are left out.

System: L1210 leukemia ip in BDF1 mice, survival T/C
Assay: NCI In Vivo Anticancer Drug Screen. Data for tumor model L1210 Leukemia (intraperitoneal) in B6D2F1 (BDF1) mice
Settings: endpoint: mean survival time, higher = longer survival
Outline: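 Antitumor effect is assessed in tumor-bearing animals. Survival in the compound arm is compared with a vehicle-dosed control arm and expressed as their quotient.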

C[n+]1ccc(Nc2ccc(NC(=O)c3ccc(Nc4cc[n+](C)c5ccc(N)cc45)cc3N)cc2)cc1
T/C (dose: 0.25 mg/kg/injection, schedule: Q01DX005 (iv), vehicle: water): 104 % of control
T/C (dose: 0.5 mg/kg/injection, schedule: Q01DX005 (iv), vehicle: water): 97 % of control and 107 % of control
T/C (dose: 0.5 mg/kg/injection, schedule: Q01DX009 (ip), vehicle: water): 113 % of control
T/C (dose: 0.5 mg/kg/injection, schedule: Q03HX008 (ip), vehicle: water): 115 % of control
T/C (dose: 0.5 mg/kg/injection, schedule: Q03HX016 (ip), vehicle: water): 121 % of control
T/C (dose: 0.5 mg/kg/injection, schedule: Q03HX024 (sc), vehicle: water): 104 % of control
T/C (dose: 0.5 mg/kg/injection, schedule: Q04DX003 (iv), vehicle: water): 104 % of control
T/C (dose: 0.78 mg/kg/injection, schedule: Q01DX009 (ip), vehicle: saline): 100 % of control
T/C (dose: 1.0 mg/kg/injection, schedule: Q01DX005 (iv), vehicle: water): 104 % of control and 105 % of control
T/C (dose: 1.0 mg/kg/injection, schedule: Q01DX009 (ip), vehicle: water): 118 % of control
T/C (dose: 1.0 mg/kg/injection, schedule: Q01DX009 (oral), vehicle: water): 109 % of control
T/C (dose: 1.0 mg/kg/injection, schedule: Q01DX009 (sc), vehicle: saline with Tween-80): 101 % of control
T/C (dose: 1.0 mg/kg/injection, schedule: Q01DX009 (sc), vehicle: water): 106 % of control
T/C (dose: 1.0 mg/kg/injection, schedule: Q03HX016 (ip), vehicle: water): 159 % of control
T/C (dose: 1.0 mg/kg/injection, schedule: Q03HX024 (ip), vehicle: water): 165 % of control
T/C (dose: 1.0 mg/kg/injection, schedule: Q03HX024 (oral), vehicle: water): 94 % of control and 103 % of control
T/C (dose: 1.0 mg/kg/injection, schedule: Q03HX024 (sc), vehicle: water): 114 % of control
T/C (dose: 1.0 mg/kg/injection, schedule: Q04DX003 (iv), vehicle: water): 102 % of control
T/C (dose: 1.56 mg/kg/injection, schedule: Q01DX009 (ip), vehicle: saline): 114 % of control
T/C (dose: 2.0 mg/kg/injection, schedule: Q01DX001 (ip), vehicle: water): 106 % of control
T/C (dose: 2.0 mg/kg/injection, schedule: Q01DX002 (ip), vehicle: water): 110 % of control
T/C (dose: 2.0 mg/kg/injection, schedule: Q01DX005 (iv), vehicle: water): 115 % of control and 116 % of control
T/C (dose: 2.0 mg/kg/injection, schedule: Q01DX009 (ip), vehicle: water): 151 % of control and 157 % of control and 205 % of control
T/C (dose: 2.0 mg/kg/injection, schedule: Q01DX009 (oral), vehicle: water): 107 % of control
T/C (dose: 2.0 mg/kg/injection, schedule: Q03HX008 (ip), vehicle: water): 155 % of control and 170 % of control
T/C (dose: 2.0 mg/kg/injection, schedule: Q03HX016 (ip), vehicle: water): 158 % of control and 216 % of control
T/C (dose: 2.0 mg/kg/injection, schedule: Q03HX024 (ip), vehicle: water): 225 % of control and 236 % of control
T/C (dose: 2.0 mg/kg/injection, schedule: Q03HX024 (oral), vehicle: water): 102 % of control and 103 % of control
T/C (dose: 2.0 mg/kg/injection, schedule: Q03HX024 (sc), vehicle: water): 180 % of control
T/C (dose: 2.0 mg/kg/injection, schedule: Q04DX003 (ip), vehicle: water): 105 % of control
T/C (dose: 2.0 mg/kg/injection, schedule: Q04DX003 (iv), vehicle: water): 104 % of control
T/C (dose: 4.0 mg/kg/injection, schedule: Q01DX001 (ip), vehicle: water): 116 % of control
T/C (dose: 4.0 mg/kg/injection, schedule: Q01DX002 (ip), vehicle: water): 117 % of control
T/C (dose: 4.0 mg/kg/injection, schedule: Q01DX009 (ip), vehicle: water): 243 % of control and 248 % of control and 456 % of control
T/C (dose: 4.0 mg/kg/injection, schedule: Q01DX009 (oral), vehicle: water): 106 % of control
T/C (dose: 4.0 mg/kg/injection, schedule: Q01DX009 (sc), vehicle: water): 214 % of control
T/C (dose: 4.0 mg/kg/injection, schedule: Q03HX008 (ip), vehicle: water): 165 % of control and 252 % of control
T/C (dose: 4.0 mg/kg/injection, schedule: Q03HX016 (ip), vehicle: water): 178 % of control and 326 % of control
T/C (dose: 4.0 mg/kg/injection, schedule: Q03HX024 (ip), vehicle: water): 233 % of control and 329 % of control
T/C (dose: 4.0 mg/kg/injection, schedule: Q03HX024 (oral), vehicle: water): 100 % of control and 110 % of control
T/C (dose: 4.0 mg/kg/injection, schedule: Q03HX024 (sc), vehicle: water): 203 % of control
T/C (dose: 4.0 mg/kg/injection, schedule: Q04DX003 (ip), vehicle: water): 120 % of control
T/C (dose: 4.0 mg/kg/injection, schedule: Q04DX003 (iv), vehicle: water): 102 % of control
T/C (dose: 6.25 mg/kg/injection, schedule: Q01DX009 (ip), vehicle: saline): 161 % of control
T/C (dose: 8.0 mg/kg/injection, schedule: Q01DX001 (ip), vehicle: water): 116 % of control
T/C (dose: 8.0 mg/kg/injection, schedule: Q01DX005 (ip), vehicle: water): 256 % of control
T/C (dose: 8.0 mg/kg/injection, schedule: Q01DX009 (ip), vehicle: water): 326 % of control and 417 % of control and 436 % of control
T/C (dose: 8.0 mg/kg/injection, schedule: Q01DX009 (oral), vehicle: water): 98 % of control and 103 % of control and 111 % of control
T/C (dose: 8.0 mg/kg/injection, schedule: Q01DX009 (sc), vehicle: water): 195 % of control
T/C (dose: 8.0 mg/kg/injection, schedule: Q03HX008 (ip), vehicle: water): 178 % of control
T/C (dose: 8.0 mg/kg/injection, schedule: Q03HX024 (ip), vehicle: water): 153 % of control
T/C (dose: 8.0 mg/kg/injection, schedule: Q03HX024 (oral), vehicle: water): 100 % of control
T/C (dose: 8.0 mg/kg/injection, schedule: Q03HX024 (sc), vehicle: water): 163 % of control
T/C (dose: 8.0 mg/kg/injection, schedule: Q04DX003 (ip), vehicle: water): 150 % of control
T/C (dose: 10.0 mg/kg/injection, schedule: Q01DX009 (oral), vehicle: saline with Tween-80): 100 % of control
T/C (dose: 12.5 mg/kg/injection, schedule: Q01DX009 (ip), vehicle: saline): 231 % of control
T/C (dose: 16.0 mg/kg/injection, schedule: Q01DX001 (ip), vehicle: water): 161 % of control
T/C (dose: 16.0 mg/kg/injection, schedule: Q01DX002 (ip), vehicle: water): 155 % of control
T/C (dose: 16.0 mg/kg/injection, schedule: Q01DX005 (ip), vehicle: water): 225 % of control
T/C (dose: 16.0 mg/kg/injection, schedule: Q01DX009 (ip), vehicle: water): 382 % of control
T/C (dose: 16.0 mg/kg/injection, schedule: Q01DX009 (oral), vehicle: water): 98 % of control and 103 % of control
T/C (dose: 16.0 mg/kg/injection, schedule: Q01DX009 (sc), vehicle: water): 230 % of control
T/C (dose: 16.0 mg/kg/injection, schedule: Q04DX003 (ip), vehicle: water): 167 % of control and 168 % of control and 190 % of control
T/C (dose: 16.0 mg/kg/injection, schedule: Q08DX002 (ip), vehicle: water): 171 % of control
T/C (dose: 20.0 mg/kg/injection, schedule: Q01DX009 (oral), vehicle: saline with Tween-80): 104 % of control
T/C (dose: 25.0 mg/kg/injection, schedule: Q01DX001 (ip), vehicle: saline): 108 % of control
T/C (dose: 25.0 mg/kg/injection, schedule: Q01DX009 (ip), vehicle: saline): 364 % of control
T/C (dose: 32.0 mg/kg/injection, schedule: Q01DX009 (oral), vehicle: water): 100 % of control
T/C (dose: 50.0 mg/kg/injection, schedule: Q01DX001 (ip), vehicle: saline): 161 % of control
T/C (dose: 50.0 mg/kg/injection, schedule: Q01DX009 (ip), vehicle: saline): 331 % of control
T/C (dose: 64.0 mg/kg/injection, schedule: Q01DX009 (oral), vehicle: water): 106 % of control and 109 % of control
T/C (dose: 80.0 mg/kg/injection, schedule: Q01DX009 (oral), vehicle: saline with Tween-80): 106 % of control
T/C (dose: 160.0 mg/kg/injection, schedule: Q01DX009 (oral), vehicle: saline with Tween-80): 101 % of control
T/C (dose: 200.0 mg/kg/injection, schedule: Q01DX001 (ip), vehicle: saline): 257 % of control
